Entries after “also recorded” stand apart in the source; their conditions may differ. Where no end group is shown, it is not given here.
What was measured:
[1] = tested on: insulin treated obese NIDDM patients; assay: Meal test in insulin treated obese NIDDM patients (Example 1); assay type: in vivo, human; conditions: meal-related, glibenclamide 1 mg i.v., GLP-1(7-36)amide infusion 0.75 pmol/kg/min for 210 min, 6 NIDDM patients
[2] = tested on: patients with NIDDM and secondary failure to sulfonylurea treatment; assay: Basal state and meal test in NIDDM patients with secondary failure to sulfonylurea treatment (Example 2); assay type: in vivo, human; conditions: for Insulinogenic index: after ingestion of the meal, integrated insulin/integrated glucose response; for Blood glucose: 45 minutes after start of administration, glibenclamide 1 mg i.v., GLP-1(7-36)amide 0.75 pmol/kg/min
[3] = tested on: isolated precultured rat pancreatic islets; conditions: in the presence of glucose; cited from earlier work
[4] = tested on: diabetic as well as nondiabetic subjects; conditions: diabetic and nondiabetic subjects; cited from earlier work

| Compound | Glucagon response [1] | Insulinogenic index [2] | Blood glucose ([2]; basal state) [mmol/L] | effect on blood glucose and C-peptide levels ([2]; basal state, in words) | insulin release [3] | Glucagon response ([1]; listed as GLP-1(7-36) amide) | insulinotropic action [4] |
| --- | --- | --- | --- | --- | --- | --- | --- |
| COc1ccc(Cl)cc1C(=O)NCCc1ccc(S(=O)(=O)NC(=O)NC2CCCCC2)cc1 [glibenclamide] | no significant influence on glucagon release; also recorded: no significant effect | 10.6 ± 2.8 | 6.0 ± 0.3 | no significant effect on its own | – | – | – |
| GLP-1(1-36)amide (HDEFERHAEGTFTSDVSSYLEGQAAKEFIAWLVKGR-NH2; UniProt P01275 92-127, looked up, fragment) [amide of the GLP-1 fragment comprising amino acid residues 1 to 36] | – | – | – | – | stimulates insulin release | – | – |
| GLP-1(7-36)amide | 10451 ± 5126 pg/ml/210 min | 21.0 ± 7.2 | 5.1 ± 0.4 | – | – | suppressed the glucagon response | – |
| GLP-1(7-37) (HAEGTFTSDVSSYLEGQAAKEFIAWLVKGRG; Glucagon-like peptide 1(7-37); UniProt P01275 98-128, looked up) [GLP-1 fragment, residues 7 to 37; formula I when X is Gly--OH] | – | – | – | – | – | – | has been demonstrated |

Reference: patent USRE37302E, “Peptide” (Novo Nordisk A/S, priority 1992, dated 2001)
